Results taken from patent US20070082903A1, “Remedy for rheumatoid arthritis” (priority 2003, published 2007).

Key:
[1] = repeated oral administration toxicity test, SMP-114 concentration in serum (HPLC-fluorescence); type: in vivo; details: both sexes, Crj:CD(SD), rat, rats
Protocol: Next, a repeated oral administration toxicity test on Crj:CD(SD) rats aged 5 weeks was carried out for each of one month and six months (once-a-day oral administration in both cases). SMP-114 was repeatedly administered to male and female SD strain rats (10 rats per group) for one month in a dose of each of 10, 30, 100 and 300 mg/kg, and its subacute toxicity and the recovery by one month of the suspension of the administration were investigated. In addition, the time-course of SMP-114 concentration in serum after each of one run of the administration and 30 days of the repeated administration was investigated. […] In addition, the time-course of SMP-114 concentration in serum after each of one run of the administration, 3 months of the repeated administration and 6 months of the repeated administration was investigated. The SMP-114 concentration in serum was measured by an HPLC-fluorescence method (fluorescence wavelength: 319 nm) after extracting SMP-114 from each sample with diethyl ether under slight acidic conditions (pH 4.7).

[2] = repeated administration test on healthy male Japanese (7 days); type: in vivo, human
Protocol: AUC0-24 level of the agent in its repeated administration to humans A repeated administration test on healthy male Japanese of 20 to 40 years old was carried out. Using the SMP-114 tablets and placebo tablets, 80 mg of each of the placebo and SMP-114 was orally administered once a day for 7 days by a placebo controlled double-blind method (8 cases of SMP-114 administration and 2 cases of placebo administration: 10 subjects in total).

- accumulative property ([2]; 80 mg once a day for 7 days): no accumulative property
- AUC(0-t) ([2]; human, serum, 80 mg oral once a day for 7 days, tablets, read-out: AUC0-24 at a steady state): 15300 ng·h/mL
Compound: C[C@@H](c1ccc(-c2ccccc2)c(F)c1)c1cc(/N=C(/N)N2CCOCC2)on1 [SMP-114, 3-[(1S)-1-(2-fluorobiphenyl-4-yl)ethyl]-5-{[amino(morpholin-4-yl)methylene]amino}isoxazole]
- AUC(0-t) ([1]; oral, calculated for a dose of 5 mg/kg, read-out: AUC0-24 for the exhibition of efficacy): 2710 to 3580 ng·h/mL
- AUC(0-t) ([1]; 6 mg/kg oral once a day for 6 months, read-out: AUC0-24): 3250 ng·h/mL
- AUC(0-t) ([1]; 10 mg/kg oral once a day for one month, read-out: AUC0-24): 7160 ng·h/mL
- tolerance ([2]; 80 mg oral once a day for 7 days): satisfactory
